{"source": "paper PMC6028453", "about": "“BrlR from Pseudomonas aeruginosa is a receptor for both cyclic di-GMP and pyocyanin” (Nature Communications, 2018)", "key": {"BrlR [1]": {"target": "T1, BrlR (Pseudomonas aeruginosa, UniProt Q9HUT5)", "T1 construct": "His6-SUMO (N, cleaved yes); made in house; host or cells: E. coli BL21 DE3", "assay": "FP competition experiment, wild-type BrlR", "assay_type": "binding", "conditions": "320 μM BrlR, 1 nM F-c-di-GMP, 760 μM c-di-GMP added", "method": "Supplementary Figure 4: Fluorescence polarization competition experiment. Wt BrlR was added to a final concentration of 320 μM in the reaction buffer containing 1 nM F-c-di-GMP, and the binding […]\ncurve was recorded. […] After the addition of\n760 μM c-di-GMP (indicated with an arrow in the figure), an apparent competition with the fluoresceinated c-di-GMP could be observed by the remarkable decrease in millipolarization units.\n(1 picture or pasted object on this page, not shown here)"}, "BrlR Y40A DNA binding": {"target": "T2, BrlR Y40A DNA binding (Pseudomonas aeruginosa, UniProt Q9HUT5, Y40A)", "T2 construct": "His6-SUMO (N, cleaved yes); made in house; host or cells: E. coli BL21 DE3", "T2 sequence (Q9HUT5 whole entry Y40A)": "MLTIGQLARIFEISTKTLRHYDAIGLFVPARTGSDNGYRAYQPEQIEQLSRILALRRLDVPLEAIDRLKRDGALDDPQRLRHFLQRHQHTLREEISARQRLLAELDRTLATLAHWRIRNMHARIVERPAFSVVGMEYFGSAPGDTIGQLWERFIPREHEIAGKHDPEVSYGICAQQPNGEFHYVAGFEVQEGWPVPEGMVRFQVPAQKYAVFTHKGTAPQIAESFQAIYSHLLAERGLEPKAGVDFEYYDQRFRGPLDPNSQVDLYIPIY", "assay": "EMSA, BrlR Y40A", "assay_type": "biochemical", "method": "(§1) A 6-carboxy-fluorescein (FAM)-labeled 36-bp brlR promoter DNA (PbrlR) or 80-bp mexA/mexE promoter DNA (PmexA/PmexE) probes (~0.375 pmol), BrlR protein and varying amounts of inducers were incubated in binding buffer (10 mM Tris HCl [pH 7.4], 50 mM KCl, 1 mM DTT, […] and 5 ng/mL poly [dI-dC]) for 60 min at 25 °C. Finally, glycerol was added to a concentration of 6.5%. The samples were subjected to a 5% polyacrylamide gel electrophoresis and run in 0.5 × Tris-borate-EDTA buffer at 80 V for 1 h at room temperature. Imaging and data analyses were performed using a Typhoon Scanner (GE Healthcare) and Imagequant software. The probes used are listed in Supplementary Table 1."}, "BrlR mutant D35A": {"target": "T3, BrlR mutant D35A (Pseudomonas aeruginosa, UniProt Q9HUT5, D35A)", "T3 construct": "His6-SUMO (N, cleaved yes); made in house; host or cells: E. coli BL21 DE3", "T3 sequence (Q9HUT5 whole entry D35A)": "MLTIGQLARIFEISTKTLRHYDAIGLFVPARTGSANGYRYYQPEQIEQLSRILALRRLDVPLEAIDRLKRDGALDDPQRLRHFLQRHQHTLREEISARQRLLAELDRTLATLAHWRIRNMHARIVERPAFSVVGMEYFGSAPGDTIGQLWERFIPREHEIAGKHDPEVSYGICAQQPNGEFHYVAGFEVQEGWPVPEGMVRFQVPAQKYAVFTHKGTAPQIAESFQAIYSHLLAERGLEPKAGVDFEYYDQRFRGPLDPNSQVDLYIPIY", "assay": "FP binding assay, BrlR D35A", "method": "F-c-di-GMP and F-c-di-AMP both contain a fluorophore at one of the 2′-ribose hydroxyls of c-di-GMP and c-di-AMP, respectively (Fig. 2f). To measure the binding of c-di-GMP and c-di-AMP to BrlR variants, 1 nM F-c-di-GMP or F-c-di-AMP was incubated with increasing amounts of indicated BrlR WT, BrlR mutation, or BrlR-C in reaction buffer (25 mM HEPES, 100 mM NaCl, pH 7.5) at 25 °C for 20 min. 1 nM fluorescein was incubated with BrlR WT in the same reaction buffer at 25 °C. FP measurements were conducted on a Synergy 4 Microplate Reader (BioTek) at 25 °C. All experiments were performed in triplicate. The curves were fitted to deduce binding affinities by GraphPad Prism 5.\nBrlR–c-di-GMPs interactions in two separate c-di-GMP binding sites\nIn the first binding site, c-di-GMP is half accommodated by the antiparallel β-sheet and two residues (M1 and D35). In detail, the backbone amide protons of the first M1 residue form a hydrogen bond (H-bond) with the phosphate oxygen atom of c-di-GMP, and the side chain of R31 forms two H-bonds with the Gua1 base. The residue D35 also forms an H-bond with the Gua1 base. The aromatic ring of Y40 interacts with the Gua1 base through a hydrophobic π-π interaction. In addition, the hydroxyl group of the Y270 side chain from another subunit interacts with the phosphate 2 of c-di-GMP via an H-bond (Fig. 2d). […]"}, "BrlR D35A DNA binding": {"target": "T4, BrlR D35A DNA binding (Pseudomonas aeruginosa, UniProt Q9HUT5, D35A)", "T4 construct": "His6-SUMO (N, cleaved yes); made in house; host or cells: E. coli BL21 DE3", "T4 sequence (Q9HUT5 whole entry D35A)": "as above", "assay": "EMSA, BrlR D35A", "assay_type": "biochemical", "method": "as §1"}, "BrlR R67A DNA binding": {"target": "T5, BrlR R67A DNA binding (Pseudomonas aeruginosa, UniProt Q9HUT5, R67A)", "T5 construct": "His6-SUMO (N, cleaved yes); made in house; host or cells: E. coli BL21 DE3", "T5 sequence (Q9HUT5 whole entry R67A)": "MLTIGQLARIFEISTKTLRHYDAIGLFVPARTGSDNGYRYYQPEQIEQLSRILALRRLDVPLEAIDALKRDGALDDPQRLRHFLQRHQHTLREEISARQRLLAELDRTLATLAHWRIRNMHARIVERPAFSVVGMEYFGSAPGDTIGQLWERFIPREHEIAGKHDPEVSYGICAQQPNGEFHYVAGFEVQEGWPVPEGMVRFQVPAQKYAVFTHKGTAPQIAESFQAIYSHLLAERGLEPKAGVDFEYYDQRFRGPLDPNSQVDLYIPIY", "assay": "EMSA, BrlR R67A", "assay_type": "biochemical", "method": "as §1"}, "BrlR [2]": {"target": "T1, BrlR", "assay": "Surface plasmon resonance (SPR) analysis", "assay_type": "binding", "conditions": "SPR, first submitted version of the manuscript (quoted by reviewer); authors later call it a very weak artificial affinity", "method": "The binding affinity of diverse toxic compounds for BrlR were investigated by SPR using a BIAcore-T200 apparatus (GE Healthcare). The ligand, BrlR (20 μM in 10 mM sodium acetate, pH 4.5), was immobilized on an activated CM5 sensor chip by amine coupling (BIAcore) with 4400 response units (RU), and the unreacted sites were blocked with 1.0 M ethanolamine–HCl (pH 8.5). Steady-state binding analysis was performed with injections of different molecules at different concentrations over the immobilized BrlR surface at a flow rate of 20 μL min^−1 at 25 °C. Association was measured for 180 s, followed by 120 s of dissociation in running buffer (20 mM Hepes pH 7.5, 150 mM NaCl). The sensorgrams for specific interactions were obtained by subtracting the reference unimmobilized flow cell response from that of the sample. Since BrlR only has one binding site for pyocyanin or other toxic compounds (Fig. 5a–f), the kinetic analysis of the sensorgrams from analyte interaction with the immobilized BrlR was performed by fitting the binding curves to a 1:1 binding model. To determine the steady state KD values, equilibrium responses were plotted against analyte concentrations, and the resulting curves were fitted to the steady state model in the BIAevaluation software package, version 3.0 (GE Healthcare)."}}, "data": [{"smiles": "Nc1nc2c(ncn2[C@@H]2O[C@@H]3COP(=O)(O)O[C@H]4[C@@H](O)[C@H](n5cnc6c(=O)[nH]c(N)nc65)O[C@@H]4COP(=O)(O)O[C@H]3[C@H]2O)c(=O)[nH]1", "note": "[c-di-GMP, cyclic diguanylate monophosphate]", "values": [{"measurement": "competition with F-c-di-GMP binding to BrlR", "setting": "BrlR [1]", "value": "outcompeted specifically"}, {"measurement": "DNA bound in the presence vs absence of c-di-GMP", "setting": "BrlR Y40A DNA binding", "value": "~ 1.1 fold"}, {"measurement": "Kd", "setting": "BrlR mutant D35A", "value": "17.5 ± 0.9", "unit": "µM"}, {"measurement": "DNA bound in the presence vs absence of c-di-GMP", "setting": "BrlR D35A DNA binding", "value": "~ 4.8 fold"}, {"measurement": "DNA bound in the presence vs absence of c-di-GMP", "setting": "BrlR R67A DNA binding", "value": "~ 5.2 fold"}, {"measurement": "Kd", "setting": "BrlR [2]", "value": 2690, "unit": "µM"}]}]}
